From article PMC12440775 (Frontiers in Pharmacology, 2025)
“Also recorded” adds a separate entry of the source. Marks after values point to notes of the source that are not given here.

Experiment: Safety and tolerability, single ascending dose (Part 1)
Type: in vivo, human
Settings: for Abdominal pain / Diarrhea / Dizziness / Flatulence / Gastrointestinal disorders / Headache / Hepatobiliary disorders / Hyperbilirubinemia / Jaundice / Nausea / Nervous system disorders / Retching / Subjects with any AE / Vomiting: 6 subjects
Method: Six volunteers received the active drug at each dose level dissolved in a polyethylene glycol (PEG)/tromethamine (TRIS)/meglumine solution, and two received a placebo. One dose level was tested within each group. Subject groups were dosed and evaluated sequentially, beginning with the lowest-dose group and proceeding stepwise to the highest-dose group. The next higher dose was administered only if no safety concerns arose during treatment of the preceding group.
Safety was assessed throughout the study by monitoring changes in clinical laboratory parameters (e.g., serum biochemistry, hematology, and urinalysis), 12-lead electrocardiograms, or vital signs (blood pressure, pulse rate, and temperature measurements); monitoring for occurrence of AEs); and carrying out physical examinations.

For `C=C[C@@H]1C[C@]1(NC(=O)[C@@H]1C[C@@H](Oc2cc(-c3csc(NC(=O)C(C)C)n3)nc3c(Br)c(OC)ccc23)CN1C(=O)[C@@H](NC(=O)OC1CCCC1)C(C)(C)C)C(=O)O` [FDV, Faldaprevir], the “Subjects with increases in total bilirubin” value (“Subjects with increases” for short) (120 mg, Part 1) was “two subjects”, the “Subjects with increases” value (240 mg, Part 1) was “three subjects” and the “Subjects with increases” value (480 mg, Part 1) was “five subjects”. For the same molecule, the “Subjects with increases” value (800 mg, Part 1) was “six subjects”, the “Subjects with increases” value (1,200 mg, Part 1) was “six subjects” and the “Subjects with marked hyperbilirubinemia / indirect (unconjugated) bilirubin >3.0 mg/dL” value (480-mg group, Part 1) was “two subjects”. For the same molecule, the “Subjects with marked hyperbilirubinemia / indirect (unconjugated) bilirubin >3.0 mg/dL” value (1,200-mg group, Part 1) was “five subjects”, the Abdominal pain (FDV 4 mg) was 0 n (%) and the Diarrhea (FDV 4 mg) was 0 n (%). For the same molecule, the Dizziness (FDV 4 mg) was 0 n (%), the Flatulence (FDV 4 mg) was 0 n (%) and the Gastrointestinal disorders (FDV 4 mg) was 1 (16.7) n (%). The Headache (FDV 4 mg) was 1 (16.7) n (%), the Hepatobiliary disorders (FDV 4 mg) was 0 n (%) and the Hyperbilirubinemia (FDV 4 mg) was 0 n (%). The Jaundice (FDV 4 mg) was 0 n (%), the Nausea (FDV 4 mg) was 1 (16.7) n (%) and the Nervous system disorders (FDV 4 mg) was 1 (16.7) n (%). For the same molecule, the Retching (FDV 4 mg) was 0 n (%), the “Subjects with any AE” value (FDV 4 mg) was 1 (16.7) n (%) and the Vomiting (FDV 4 mg) was 0 n (%). The Abdominal pain (FDV 16 mg) was 0 n (%), the Diarrhea (FDV 16 mg) was 0 n (%) and the Dizziness (FDV 16 mg) was 0 n (%). The Flatulence (FDV 16 mg) was 0 n (%), the Gastrointestinal disorders (FDV 16 mg) was 0 n (%) and the Headache (FDV 16 mg) was 0 n (%). For the same molecule, the Hepatobiliary disorders (FDV 16 mg) was 0 n (%), the Hyperbilirubinemia (FDV 16 mg) was 0 n (%) and the Jaundice (FDV 16 mg) was 0 n (%). The Nausea (FDV 16 mg) was 0 n (%), the Nervous system disorders (FDV 16 mg) was 0 n (%) and the Retching (FDV 16 mg) was 0 n (%). For the same molecule, the “Subjects with any AE” value (FDV 16 mg) was 0 n (%), the Vomiting (FDV 16 mg) was 0 n (%) and the Abdominal pain (FDV 48 mg) was 0 n (%). The Diarrhea (FDV 48 mg) was 0 n (%), the Dizziness (FDV 48 mg) was 1 (16.7) n (%) and the Flatulence (FDV 48 mg) was 0 n (%). For the same molecule, the Gastrointestinal disorders (FDV 48 mg) was 0 n (%), the Headache (FDV 48 mg) was 1 (16.7) n (%) and the Hepatobiliary disorders (FDV 48 mg) was 0 n (%). The Hyperbilirubinemia (FDV 48 mg) was 0 n (%), the Jaundice (FDV 48 mg) was 0 n (%) and the Nausea (FDV 48 mg) was 0 n (%). For the same molecule, the Nervous system disorders (FDV 48 mg) was 1 (16.7) n (%), the Retching (FDV 48 mg) was 0 n (%) and the “Subjects with any AE” value (FDV 48 mg) was 3 (50.0) n (%). The Vomiting (FDV 48 mg) was 0 n (%), the Abdominal pain (FDV 120 mg) was 0 n (%) and the Diarrhea (FDV 120 mg) was 1 (16.7) n (%). For the same molecule, the Dizziness (FDV 120 mg) was 0 n (%), the Flatulence (FDV 120 mg) was 0 n (%) and the Gastrointestinal disorders (FDV 120 mg) was 1 (16.7) n (%). The Headache (FDV 120 mg) was 0 n (%), the Hepatobiliary disorders (FDV 120 mg) was 0 n (%) and the Hyperbilirubinemia (FDV 120 mg) was 0 n (%). The Jaundice (FDV 120 mg) was 0 n (%), the Nausea (FDV 120 mg) was 0 n (%) and the Nervous system disorders (FDV 120 mg) was 0 n (%). The Retching (FDV 120 mg) was 0 n (%), the “Subjects with any AE” value (FDV 120 mg) was 1 (16.7) n (%) and the Vomiting (FDV 120 mg) was 0 n (%). The Abdominal pain (FDV 240 mg) was 1 (16.7) n (%), the Diarrhea (FDV 240 mg) was 0 n (%) and the Dizziness (FDV 240 mg) was 0 n (%). For the same molecule, the Flatulence (FDV 240 mg) was 0 n (%), the Gastrointestinal disorders (FDV 240 mg) was 2 (33.3) n (%) and the Headache (FDV 240 mg) was 2 (33.3) n (%). The Hepatobiliary disorders (FDV 240 mg) was 0 n (%), the Hyperbilirubinemia (FDV 240 mg) was 0 n (%) and the Jaundice (FDV 240 mg) was 0 n (%). For the same molecule, the Nausea (FDV 240 mg) was 1 (16.7) n (%), the Nervous system disorders (FDV 240 mg) was 2 (33.3) n (%) and the Retching (FDV 240 mg) was 0 n (%). For the same molecule, the “Subjects with any AE” value (FDV 240 mg) was 5 (83.3) n (%), the Vomiting (FDV 240 mg) was 1 (16.7) n (%) and the Abdominal pain (FDV 480 mg) was 0 n (%). The Diarrhea (FDV 480 mg) was 3 (50.0) n (%), the Dizziness (FDV 480 mg) was 1 (16.7) n (%) and the Flatulence (FDV 480 mg) was 1 (16.7) n (%). The Gastrointestinal disorders (FDV 480 mg) was 4 (66.7) n (%), the Headache (FDV 480 mg) was 3 (50.0) n (%) and the Hepatobiliary disorders (FDV 480 mg) was 2 (33.3) n (%). For the same molecule, the Hyperbilirubinemia (FDV 480 mg) was 2 (33.3) n (%), the Jaundice (FDV 480 mg) was 0 n (%) and the Nausea (FDV 480 mg) was 2 (33.3) n (%). For the same molecule, the Nervous system disorders (FDV 480 mg) was 4 (66.7) n (%), the Retching (FDV 480 mg) was 2 (33.3) n (%) and the “Subjects with any AE” value (FDV 480 mg) was 6 (100) n (%). The Vomiting (FDV 480 mg) was 1 (16.7) n (%), the Abdominal pain (FDV 800 mg) was 1 (16.7) n (%) and the Diarrhea (FDV 800 mg) was 4 (66.7) n (%). The Dizziness (FDV 800 mg) was 1 (16.7) n (%), the Flatulence (FDV 800 mg) was 0 n (%) and the Gastrointestinal disorders (FDV 800 mg) was 4 (66.7) n (%). The Headache (FDV 800 mg) was 1 (16.7) n (%), the Hepatobiliary disorders (FDV 800 mg) was 0 n (%) and the Hyperbilirubinemia (FDV 800 mg) was 0 n (%). For the same molecule, the Jaundice (FDV 800 mg) was 0 n (%), the Nausea (FDV 800 mg) was 1 (16.7) n (%) and the Nervous system disorders (FDV 800 mg) was 1 (16.7) n (%). The Retching (FDV 800 mg) was 0 n (%), the “Subjects with any AE” value (FDV 800 mg) was 4 (66.7) n (%) and the Vomiting (FDV 800 mg) was 0 n (%). For the same molecule, the Abdominal pain (FDV 1,200 mg) was 0 n (%), the Diarrhea (FDV 1,200 mg) was 3 (50.0) n (%) and the Dizziness (FDV 1,200 mg) was 1 (16.7) n (%). The Flatulence (FDV 1,200 mg) was 1 (16.7) n (%), the Gastrointestinal disorders (FDV 1,200 mg) was 4 (66.7) n (%) and the Headache (FDV 1,200 mg) was 0 n (%). For the same molecule, the Hepatobiliary disorders (FDV 1,200 mg) was 5 (83.3) n (%), the Hyperbilirubinemia (FDV 1,200 mg) was 5 (83.3) n (%) and the Nausea (FDV 1,200 mg) was 1 (16.7) n (%). The Nervous system disorders (FDV 1,200 mg) was 1 (16.7) n (%), the Retching (FDV 1,200 mg) was 1 (16.7) n (%) and the “Subjects with any AE” value (FDV 1,200 mg) was 6 (100) n (%). The Vomiting (FDV 1,200 mg) was 0 n (%), the Jaundice (FDV 1,200 mg, mild transient jaundice of the skin and sclera) was 1 (16.7) ^b n (%) and the Severe vomiting (FDV 240-mg dose group) was “one subject”. The “Subjects with an AE after treatment with FDV” value (Part 1, all FDV dose groups) was 26 subjects out of 48, the “Subjects with AEs with a possible relationship to the study drug according to the investigator” value (Part 1, receiving FDV) was 19 subjects and the “Subjects with marked hyperbilirubinemia (>3.0 mg/dL)” value (all dose groups, Part 1) was “seven subjects”. For the same molecule, the “Serious AEs” value (during the study (both parts)) was “no serious AEs were reported; also recorded: No serious AEs occurred”, the Tolerability (oral solution, single doses 4–1,200 mg) was “generally well tolerated” and the “Changes in alanine transaminase, hemoglobin, or neutrophil count” value (subjects with hyperbilirubinemia or elevated total bilirubin) was “no clinically relevant changes”. The “Changes in vital signs, ECGs, or medical examinations” value (whole study) was “No clinically relevant changes” and the “Subjects with slight elevations of direct bilirubin” value (whole study, groups not specified) was 14 subjects.
